The NIST ThermoML archive (doi:10.1016/j.tca.2012.10.004)
Numbers after ± are expanded uncertainties.

Tests used:
[1] = relative permittivity at zero frequency (dimensionless); xn = mol fraction of the nth substance listed; conditions: 101 kPa, Liquid, Coaxial cylinder capacitor
[2] = refractive index (Na D-line) (dimensionless); xn = mol fraction of the nth substance listed; conditions: 101 kPa, Liquid, Standard Abbe refractometry

CN(CCO)CCO [N-methyldiethanolamine] + O=S1(=O)CCCC1
Conditions | refractive index, [2] | relative permittivity at zero frequency, [1]
293.15 K, x1 = 0.1001 | 1.48265 ± 0.00037 | 40.8 ± 1.6
293.15 K, x1 = 0.2012 | 1.48037 ± 0.00037 | 38.3 ± 1.5
293.15 K, x1 = 0.2999 | 1.47845 ± 0.00037 | 35.5 ± 1.4
293.15 K, x1 = 0.4003 | 1.4766 ± 0.00037 | 33.5 ± 1.3
293.15 K, x1 = 0.5005 | 1.47489 ± 0.00037 | 31.7 ± 1.3
293.15 K, x1 = 0.6 | 1.47343 ± 0.00037 | 30.2 ± 1.2
293.15 K, x1 = 0.7002 | 1.47207 ± 0.00037 | 28.4 ± 1.1
293.15 K, x1 = 0.8011 | 1.47093 ± 0.00037 | 26.6 ± 1.1
293.15 K, x1 = 0.8998 | 1.47017 ± 0.00037 | 24.6 ± 1
293.15 K, x1 = 1 | 1.46935 ± 0.00037 | 22.9 ± 0.9
298.15 K, x1 = 0.1001 | 1.48095 ± 0.00037 | 40.1 ± 1.6
298.15 K, x1 = 0.2012 | 1.47872 ± 0.00037 | 37.6 ± 1.5
298.15 K, x1 = 0.2999 | 1.47672 ± 0.00037 | 34.8 ± 1.4
298.15 K, x1 = 0.4003 | 1.47488 ± 0.00037 | 32.8 ± 1.3
298.15 K, x1 = 0.5005 | 1.47316 ± 0.00037 | 31 ± 1.2
298.15 K, x1 = 0.6 | 1.47164 ± 0.00037 | 29.5 ± 1.2
298.15 K, x1 = 0.7002 | 1.47023 ± 0.00037 | 27.7 ± 1.1
298.15 K, x1 = 0.8011 | 1.469 ± 0.00037 | 26 ± 1
298.15 K, x1 = 0.8998 | 1.46802 ± 0.00037 | 24.1 ± 1
298.15 K, x1 = 1 | 1.46724 ± 0.00037 | 22.4 ± 0.9
303.15 K, x1 = 0.1001 | 1.47886 ± 0.00037 | 39.4 ± 1.6
303.15 K, x1 = 0.2012 | 1.4767 ± 0.00037 | 36.9 ± 1.5
303.15 K, x1 = 0.2999 | 1.47473 ± 0.00037 | 34.1 ± 1.4
303.15 K, x1 = 0.4003 | 1.47288 ± 0.00037 | 32.1 ± 1.3
303.15 K, x1 = 0.5005 | 1.47124 ± 0.00037 | 30.3 ± 1.2
303.15 K, x1 = 0.6 | 1.46976 ± 0.00037 | 28.8 ± 1.2
303.15 K, x1 = 0.7002 | 1.46844 ± 0.00037 | 27 ± 1.1
303.15 K, x1 = 0.8011 | 1.46717 ± 0.00037 | 25.3 ± 1
303.15 K, x1 = 0.8998 | 1.46615 ± 0.00037 | 23.6 ± 0.9
303.15 K, x1 = 1 | 1.46532 ± 0.00037 | 21.8 ± 0.9
308.15 K, x1 = 0.1001 | 1.47712 ± 0.00037 | 38.7 ± 1.5
308.15 K, x1 = 0.2012 | 1.47488 ± 0.00037 | 36.1 ± 1.4
308.15 K, x1 = 0.2999 | 1.47281 ± 0.00037 | 33.4 ± 1.3
308.15 K, x1 = 0.4003 | 1.47099 ± 0.00037 | 31.3 ± 1.3
308.15 K, x1 = 0.5005 | 1.46931 ± 0.00037 | 29.5 ± 1.2
308.15 K, x1 = 0.6 | 1.46777 ± 0.00037 | 28.1 ± 1.1
308.15 K, x1 = 0.7002 | 1.46639 ± 0.00037 | 26.3 ± 1.1
308.15 K, x1 = 0.8011 | 1.46513 ± 0.00037 | 24.6 ± 1
308.15 K, x1 = 0.8998 | 1.46413 ± 0.00037 | 22.9 ± 0.9
308.15 K, x1 = 1 | 1.4631 ± 0.00037 | 21.3 ± 0.9
313.15 K, x1 = 0.1001 | 1.47549 ± 0.00037 | 38 ± 1.5
313.15 K, x1 = 0.2012 | 1.47327 ± 0.00037 | 35.5 ± 1.4
313.15 K, x1 = 0.2999 | 1.47109 ± 0.00037 | 32.7 ± 1.3
313.15 K, x1 = 0.4003 | 1.46919 ± 0.00037 | 30.6 ± 1.2
313.15 K, x1 = 0.5005 | 1.46741 ± 0.00037 | 28.7 ± 1.1
313.15 K, x1 = 0.6 | 1.46584 ± 0.00037 | 27.4 ± 1.1
313.15 K, x1 = 0.7002 | 1.46442 ± 0.00037 | 25.6 ± 1
313.15 K, x1 = 0.8011 | 1.46301 ± 0.00037 | 24 ± 1
313.15 K, x1 = 0.8998 | 1.46184 ± 0.00037 | 22.2 ± 0.9
313.15 K, x1 = 1 | 1.46074 ± 0.00037 | 20.8 ± 0.8
318.15 K, x1 = 0.1001 | 1.47376 ± 0.00037 | 37.4 ± 1.5
318.15 K, x1 = 0.2012 | 1.47154 ± 0.00037 | 34.6 ± 1.4
318.15 K, x1 = 0.2999 | 1.46941 ± 0.00037 | 32 ± 1.3
318.15 K, x1 = 0.4003 | 1.46751 ± 0.00037 | 29.9 ± 1.2
318.15 K, x1 = 0.5005 | 1.46573 ± 0.00037 | 28 ± 1.1
318.15 K, x1 = 0.6 | 1.46414 ± 0.00037 | 26.7 ± 1.1
318.15 K, x1 = 0.7002 | 1.46267 ± 0.00037 | 24.9 ± 1
318.15 K, x1 = 0.8011 | 1.46127 ± 0.00037 | 23.3 ± 0.9
318.15 K, x1 = 0.8998 | 1.46005 ± 0.00037 | 21.7 ± 0.9
318.15 K, x1 = 1 | 1.45892 ± 0.00037 | 20.3 ± 0.8
323.15 K, x1 = 0.1001 | 1.47203 ± 0.00037 | 36.7 ± 1.5
323.15 K, x1 = 0.2012 | 1.46976 ± 0.00037 | 33.9 ± 1.4
323.15 K, x1 = 0.2999 | 1.46769 ± 0.00037 | 31.3 ± 1.3
323.15 K, x1 = 0.4003 | 1.46581 ± 0.00037 | 29.2 ± 1.2
323.15 K, x1 = 0.5005 | 1.46403 ± 0.00037 | 27.3 ± 1.1
323.15 K, x1 = 0.6 | 1.46242 ± 0.00037 | 26 ± 1
323.15 K, x1 = 0.7002 | 1.46091 ± 0.00037 | 24.2 ± 1
323.15 K, x1 = 0.8011 | 1.45949 ± 0.00037 | 22.7 ± 0.9
323.15 K, x1 = 0.8998 | 1.45821 ± 0.00037 | 21.2 ± 0.8
323.15 K, x1 = 1 | 1.45708 ± 0.00037 | 19.8 ± 0.8
328.15 K, x1 = 0.1001 | 1.47021 ± 0.00037 | 36.2 ± 1.4
328.15 K, x1 = 0.2012 | 1.46788 ± 0.00037 | 33.2 ± 1.3
328.15 K, x1 = 0.2999 | 1.46596 ± 0.00037 | 30.6 ± 1.2
328.15 K, x1 = 0.4003 | 1.46404 ± 0.00037 | 28.5 ± 1.1
328.15 K, x1 = 0.5005 | 1.46226 ± 0.00037 | 26.5 ± 1.1
328.15 K, x1 = 0.6 | 1.46061 ± 0.00037 | 25.2 ± 1
328.15 K, x1 = 0.7002 | 1.45905 ± 0.00037 | 23.5 ± 0.9
328.15 K, x1 = 0.8011 | 1.45761 ± 0.00037 | 22.1 ± 0.9
328.15 K, x1 = 0.8998 | 1.45636 ± 0.00037 | 20.5 ± 0.8
328.15 K, x1 = 1 | 1.45513 ± 0.00037 | 19.3 ± 0.8
